One assay relates to tubulin. Nature of the assay: Tubulin polymerization inhibition assay (DAPI fluorescence). As to conditions: tubulin 1 mg/ml, DAPI; read-out: IPT (inhibition of tubulin polymerization) IC50. It counts as biochemical. From the text:
Fluorescence was then read at the excitation wavelength of 360 nm and emission of 450 nm.

In the next assay the test system is A2780cis. Briefly: Cytotoxicity assay for human cancer cells (MTS). It counts as cell-based. As to conditions: A2780cis ovarian carcinoma-cisplatin resistant, 72 h, read-out: IC 50 value. As to the method: (§1) Human cells were grown in DMEM medium supplemented with 10% fetal calf serum (Invitrogen), in the presence of penicillin, streptomycin and amphotericin B (Fungizone) in 75 cm^2 flask under 5% CO2. Cells were plated in 96-well tissue culture microplates at a density of 650 cells/well in 200 μl medium and treated 24 h later with the compound dissolved in DMSO at concentrations ranging from 0.5-10 μM applied using an automated benchstation (Beckman Biomek 3000). Controls received the same volume of DMSO as the test wells (1% final concentration). After a 72 h exposure time, MTS reagent (Promega) was added and incubated for 3 h at 37° C. and the absorbance was read at 490 nm. Results are expressed as the inhibition of cell proliferation calculated as the ratio [(OD490 treated/OD490 control)×100].

The subject of the next assay is HCT116. Nature of the assay: Cytotoxicity assay for human cancer cells (MTS). The format is cell-based. As to conditions: HCT-116, HCT116 colorectal carcinoma, 72 h, read-out: IC 50 value. As to the method: as §1
The next assay has as its system HCT15. Nature of the assay: Cytotoxicity assay for human cancer cells (MTS). The format is cell-based. As to conditions: HCT-15, HCT15 colon adenocarcinoma, 72 h, read-out: IC 50 value. As to the method:
as §1

A further assay has as its system HL60R. Briefly: Cytotoxicity assay for human cancer cells (MTS). The format is cell-based. The note with it: HL60R acute promyelocytic leukemia-multidrug resistant, 72 h, read-out: IC 50 value. As to the method:
as §1

Another assay deals with HL60. Briefly: Cytotoxicity assay for human cancer cells (MTS). It counts as cell-based. The note with it: HL-60, HL60 acute promyelocytic leukemia, 72 h, read-out: IC 50 value. As to the method:
as §1

A further assay deals with HepG2. Briefly: Cytotoxicity assay for human cancer cells (MTS). The format is cell-based. The note with it: HepG2 hepatocellular carcinoma, 72 h, read-out: IC 50 value. As to the method: as §1
The next assay relates to KB. Nature of the assay: Cytotoxicity assay for human cancer cells (MTS). It counts as cell-based. As to conditions: KB epidermoid carcinoma, 72 h, read-out: IC 50 value. As to the method: as §1
For another assay, the system named is LnaCap. Nature of the assay: Cytotoxicity assay for human cancer cells (MTS). It counts as cell-based. As to the method:
as §1

The test system of the next assay is MCF7R. Briefly: Cytotoxicity assay for human cancer cells (MTS). The format is cell-based. As to conditions: MCF7R breast ER+ (multidrug resistant), 72 h, read-out: IC 50 value. As to the method:
as §1

In a further assay the test system is MIA PaCa-2. Nature of the assay: Cytotoxicity assay for human cancer cells (MTS). The note with it: MIA PaCa-2 pancreatic carcinoma, 72 h, read-out: IC 50 value. The format is cell-based. As to the method: as §1
In another assay the test system is OVCAR8. Briefly: Cytotoxicity assay for human cancer cells (MTS). The format is cell-based. The note with it: OVCAR-8, OVCAR8 ovarian adenocarcinoma, 72 h, read-out: IC 50 value. As to the method:
as §1

The next assay relates to PC3. Briefly: Cytotoxicity assay for human cancer cells (MTS). It counts as cell-based. As to the method: as §1
A further assay concerns SF268. Nature of the assay: Cytotoxicity assay for human cancer cells (MTS). The note with it: SF-268, SF268 brain glioma, 72 h, read-out: IC 50 value. The format is cell-based. As to the method: as §1
In another assay the test system is SK-OV3. Briefly: Cytotoxicity assay for human cancer cells (MTS). The format is cell-based. As to conditions: SK-OV-3, SK-OV3 ovarian adenocarcinoma, 72 h, read-out: IC 50 value. As to the method: as §1
Another assay concerns U937. Nature of the assay: Cytotoxicity assay for human cancer cells (MTS). The format is cell-based. As to conditions: U-937, U937 histiocytic lymphoma, 72 h, read-out: IC 50 value. As to the method: as §1

SMILES strings stand for the structures. Read-outs that look alike come from different tables or passages of the source.

For `COc1cc(Nc2c3c(nc4cc5c(cc24)OCO5)CCCC3=O)cc(OC)c1OC.Cl` [SGR307.HCl, 6,7-(Methylenedioxy)-9-(3,4,5-trimethoxyphenylamino)-3,4-dihydroacridin-1(2H)-one, hydrochloride], the IC50 worked out at 1090 nM in the assay with tubulin; 109 nM in the assay on A2780cis; 68 nM in the assay with HCT116; 91 nM in the assay with HCT15; 164 nM in the assay on HL60R; 90 nM with HL60. The IC50 was 139 nM in the assay with HepG2; 111 nM with KB; 330 to 380 nM with LnaCap (LnaCap androgen-dependent prostate adenocarcinoma, value of running text, read-out: IC50); 103 nM in the assay with LnaCap (LnaCap prostate adenocarcinoma (androgen dependent), 72 h, MTS, read-out: IC 50 value); 121 nM with MCF7R; 109 nM in the assay with MIA PaCa-2. Further, the IC50 in the assay with OVCAR8 was 138 nM; with PC3 (PC-3, PC3 androgen-independent prostate adenocarcinoma, value of running text, read-out: IC50) it was 120 to 130 nM; in the assay with PC3 (PC-3, PC3 prostate adenocarcinoma (androgen independent), 72 h, MTS, read-out: IC 50 value), 98 nM; in the assay on SF268 it was 150 nM; with SK-OV3, 112 nM; with U937, 121 nM.
